Data as given in article PMC10986989, “Reciprocal regulation of enterococcal cephalosporin resistance by products of the autoregulated yvcJ-glmR-yvcL operon enhances fitness during cephalosporin exposure” (PLOS Genetics, 2024).

Biological target: T1, GlmR (Enterococcus faecalis, UniProt A0ACD6TA08)
T1 construct: gene OG1RF_10501
Test: thermal shift assay (SYPRO Orange)
Assay type: binding
Settings: 10 uM protein, 1 mM ligand

## CC(=O)N[C@H]1[C@@H](OP(=O)(O)OP(=O)(O)OC[C@H]2O[C@@H](n3ccc(=O)[nH]c3=O)[C@H](O)[C@@H]2O)O[C@H](CO)[C@@H](O)[C@@H]1O [UDP-GlcNAc]
  thermal shift: When incubated with UDP-GlcNAc, both YvcJ and GlmR exhibited clear thermal shifts
